The source of these data is ChEMBL document CHEMBL3351875, “Synthesis of Deuterated Benzopyran Derivatives as Selective COX-2 Inhibitors with Improved Pharmacokinetic Properties” (ACS Med Chem Lett, 2014).

The target in data set [1] is Prostaglandin G/H synthase 1 (Homo sapiens, UniProt P23219). In words: Inhibition of human recombinant COX1 pre-incubated for 15 mins before fluorometric substrate addition by fluorescence based assay.
Data set [2] in a line: AUC (0 to infinity) in Sprague-Dawley rat at 25 mg/kg, po measured during 1 to 24 hrs by LC-MS method. It is filed as ADME, organism-based. Further details: time infinity, dose 25 mg/kg, route oral. The following applies: plasma.
The nature of data set [3]: Apparent oral clearance in Sprague-Dawley rat at 5 mg/kg, iv measured during 1 to 24 hrs by LC-MS method. The data set is classed as ADME, organism-based. Further details: dose 5 mg/kg, route oral. The following applies: in vivo.
Data set [4] is described as follows: Volume of distribution in Sprague-Dawley rat at 5 mg/kg, iv measured during 1 to 24 hrs by LC-MS method. Further details: dose 5 mg/kg, route intravenous. It is filed as ADME, organism-based. The following applies: in vivo.
Data set [5] in a line: (§1) AUC (0 to infinity) in Sprague-Dawley rat at 5 mg/kg, iv measured during 1 to 24 hrs by LC-MS method. It is filed as ADME, organism-based, Plasma. Further details: time infinity, dose 5 mg/kg, route intravenous. The following applies: Sprague-Dawley, plasma.
Data set [6] has as its system Rattus norvegicus. In words: Half life in Sprague-Dawley rat at 5 mg/kg, iv measured during 1 to 24 hrs by LC-MS method. The data set is classed as ADME, organism-based. Further details: dose 5 mg/kg, route intravenous. The following applies: in vivo.
The nature of data set [7]: Apparent oral clearance in Sprague-Dawley rat at 25 mg/kg, po measured during 1 to 24 hrs by LC-MS method. The data set is classed as ADME, organism-based. Further details: dose 25 mg/kg, route oral. The following applies: in vivo.
A short description of data set [8]: Oral bioavailability in Sprague-Dawley rat at 25 mg/kg measured during 1 to 24 hrs by LC-MS method. It is filed as ADME, organism-based. The following applies: in vivo.
The test system of data set [9] is Rattus norvegicus. Put plainly: Volume of distribution in Sprague-Dawley rat at 25 mg/kg, po measured during 1 to 24 hrs by LC-MS method. The data set is classed as ADME, organism-based. Further details: dose 25 mg/kg, route oral. The following applies: in vivo.
Data set [10] in a line: Cmax in Sprague-Dawley rat at 5 mg/kg, iv measured during 1 to 24 hrs by LC-MS method. The data set is classed as ADME, organism-based. Further details: dose 5 mg/kg, route intravenous. The following applies: in vivo.
Data set [11] is described as follows: Half life in Sprague-Dawley rat at 25 mg/kg, po measured during 1 to 24 hrs by LC-MS method. The data set is classed as ADME, organism-based. Further details: dose 25 mg/kg, route oral. The following applies: in vivo.
Data set [12] can be described thus: Cmax in Sprague-Dawley rat at 25 mg/kg, po measured during 1 to 24 hrs by LC-MS method. The data set is classed as ADME, organism-based. Further details: dose 25 mg/kg, route oral. The following applies: in vivo.
Data set [13] is described as follows: Tmax in Sprague-Dawley rat at 25 mg/kg, po measured during 1 to 24 hrs by LC-MS method. Further details: dose 25 mg/kg, route oral. The data set is classed as ADME, organism-based. The following applies: in vivo.
Data set [14] has as its target T1, Prostaglandin G/H synthase 2 (Homo sapiens, UniProt P35354).
T1 sequence (P35354 whole entry): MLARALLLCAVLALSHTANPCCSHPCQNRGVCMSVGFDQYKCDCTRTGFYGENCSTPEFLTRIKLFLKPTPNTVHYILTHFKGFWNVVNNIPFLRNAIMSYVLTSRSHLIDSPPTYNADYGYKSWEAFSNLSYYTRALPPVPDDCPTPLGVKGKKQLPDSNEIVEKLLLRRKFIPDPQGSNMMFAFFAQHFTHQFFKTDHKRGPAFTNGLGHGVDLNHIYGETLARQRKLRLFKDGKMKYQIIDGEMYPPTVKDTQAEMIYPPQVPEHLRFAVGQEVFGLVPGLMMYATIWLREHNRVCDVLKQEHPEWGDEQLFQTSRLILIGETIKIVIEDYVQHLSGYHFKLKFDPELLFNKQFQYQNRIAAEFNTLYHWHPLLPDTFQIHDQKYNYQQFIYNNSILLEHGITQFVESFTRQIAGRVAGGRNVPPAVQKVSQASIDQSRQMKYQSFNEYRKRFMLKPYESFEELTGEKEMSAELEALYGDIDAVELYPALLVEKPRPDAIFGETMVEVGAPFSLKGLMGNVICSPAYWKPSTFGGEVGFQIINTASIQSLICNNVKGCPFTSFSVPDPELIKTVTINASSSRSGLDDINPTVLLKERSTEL
In words: Inhibition of human recombinant COX2 pre-incubated for 15 mins before fluorometric substrate addition by fluorescence based assay.

Data set [15] relates to Rattus norvegicus. Put plainly: Antinociceptive activity in orally dosed Sprague-Dawley rat model of carrageenan-induced foot paw hyperalgesia assessed as paw withdrawal latency. The data set is classed as functional, organism-based. On the technique in general: In the carrageenan paw model, swelling and tenderness develop within hours.
Data set [16] has as its system Rattus norvegicus. In words: Volume of distribution in Sprague-Dawley rat at 10 mg/kg, po measured during 1 to 24 hrs by LC-MS method. It is filed as ADME, organism-based. Further details: dose 10 mg/kg, route oral. The following applies: in vivo.
The subject of data set [17] is Rattus norvegicus. Put plainly: Antiinflammatory activity in orally dosed Sprague-Dawley rat model of carrageenan-induced air pouch inflammation assessed as reduction in PGE2 level by ELISA method. The data set is classed as functional, organism-based. (ELISA stands for enzyme-linked immunosorbent assay.)
The subject of data set [18] is Rattus norvegicus. Put plainly: Antiinflammatory activity in orally dosed Sprague-Dawley rat model of carrageenan-induced foot paw edema assessed as reduction in edema by plethysmometry. It is filed as functional, organism-based.
A short description of data set [19]: Apparent oral clearance in Sprague-Dawley rat at 10 mg/kg, po measured during 1 to 24 hrs by LC-MS method. The data set is classed as ADME, organism-based. Further details: dose 10 mg/kg, route oral. The following applies: Sprague-Dawley, in vivo.
Data set [20] is described as follows: (§2) AUC (0 to infinity) in Sprague-Dawley rat at 10 mg/kg, po measured during 1 to 24 hrs by LC-MS method. The data set is classed as ADME, organism-based, Plasma. Further details: time infinity, dose 10 mg/kg, route oral. The following applies: Sprague-Dawley, plasma.
The nature of data set [21]: Oral bioavailability in Sprague-Dawley rat at 10 mg/kg measured during 1 to 24 hrs by LC-MS method. The data set is classed as ADME, organism-based. The following applies: Sprague-Dawley, in vivo.
Data set [22] concerns Rattus norvegicus. In words: Antiarthritic activity in Lewis rat model of adjuvant-induced arthritis administrated by oral gavage once daily. The data set is classed as functional.
Data set [23] has as its system Rattus norvegicus. The data set is described as §1. The data set is classed as ADME, organism-based, Plasma. Further details: time infinity, dose 5 mg/kg, route intravenous. The following applies: in vivo.
Data set [24] deals with Rattus norvegicus. Described as §2. Further details: time infinity, dose 10 mg/kg, route oral. The following applies: in vivo. The data set is classed as ADME, organism-based, Plasma.

Chain of Prostaglandin G/H synthase 1 (P23219 whole entry): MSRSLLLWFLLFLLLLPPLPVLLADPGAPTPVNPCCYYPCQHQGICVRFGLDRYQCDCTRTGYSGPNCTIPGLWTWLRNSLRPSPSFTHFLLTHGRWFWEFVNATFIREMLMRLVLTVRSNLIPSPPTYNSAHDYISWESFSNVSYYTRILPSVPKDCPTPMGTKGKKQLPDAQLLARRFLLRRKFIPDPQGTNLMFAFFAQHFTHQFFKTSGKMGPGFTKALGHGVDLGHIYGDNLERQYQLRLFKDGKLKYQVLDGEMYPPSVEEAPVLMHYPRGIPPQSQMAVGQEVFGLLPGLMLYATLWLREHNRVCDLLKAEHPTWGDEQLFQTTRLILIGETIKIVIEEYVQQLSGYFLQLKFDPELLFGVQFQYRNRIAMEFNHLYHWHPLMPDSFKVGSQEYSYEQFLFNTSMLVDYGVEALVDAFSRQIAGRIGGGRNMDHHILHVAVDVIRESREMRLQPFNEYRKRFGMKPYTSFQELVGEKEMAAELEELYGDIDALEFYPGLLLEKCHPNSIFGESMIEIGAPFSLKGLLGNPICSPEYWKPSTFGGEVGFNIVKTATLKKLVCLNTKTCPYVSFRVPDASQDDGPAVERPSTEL

By IC50 is commonly meant the point on the concentration scale where inhibition reaches its midpoint. For `[2H]C([2H])([2H])c1c(Br)c2c(c(C([2H])([2H])[2H])c1Br)C=C(C(=O)O)C(C(F)(F)F)O2` (stereo not drawn), the 50% inhibitory concentration (IC50) in data set [1] was greater than 100000 nM.
By AUC(0-inf) is commonly meant the area under the concentration-time curve extrapolated to infinity. A high value points to more exposure. By CL/F is commonly meant the apparent clearance, not corrected for the fraction that reaches the circulation. The term Cmax denotes the highest concentration seen after dosing. By half-life is commonly meant how long it takes for the measured level to halve. Read a low half-life as fast loss. One may read the Tmax as the time from dosing to the highest level. Turning to `CCc1cc(OC(F)(F)F)cc2c1OC(C(F)(F)F)C(C(=O)O)=C2` (stereo not drawn), the AUC(0-inf) in data set [2] turned out to be 511 µg·h/mL; in data set [5], 131 µg·h/mL. In addition, the values for the apparent clearance CL/F in [3] and in data set [7] were 0.633 mL/min/kg and 0.817 mL/min/kg, respectively. Moreover, the Vd in data set [4] was found to be 0.301 L/kg; in the data set with Rattus norvegicus [9], 0.678 L/kg. In the data set on Rattus norvegicus [6], the t1/2 worked out at 5.446 h. Further, the bioavailability in [8] was 78.6%. Besides, the values for the Cmax in data set [10] and in [12] were 37200 ng/mL and 29500 ng/mL, respectively. The compound further showed a half-life in data set [11] of 9.54 h. Further, the IC50 in data set [1] was greater than 100000 nM. Further, the Tmax in [13] amounted to 1.62 h.
For `[2H]C([2H])([2H])c1cc2c(c(C([2H])([2H])[2H])c1Br)C=C(C(=O)O)[C@@H](C(F)(F)F)O2`, the 50% inhibitory concentration (IC50) in data set [14] is 9 nM; in data set [1] it was greater than 100000 nM.
The corresponding values for `Cc1c(Br)c(C)c2c(c1Br)OC(C(F)(F)F)C(C(=O)O)=C2` (stereo not drawn) are 69 nM and greater than 100000 nM.
Regarding `[2H]C([2H])([2H])c1cc2c(c(C([2H])([2H])[2H])c1Br)C=C(C(=O)O)C(C(F)(F)F)O2` (stereo not drawn), the values for the apparent clearance (CL/F) in [3] and in data set [19] were 2.25 mL/min/kg and 2.08 mL/min/kg, respectively. Further, the Vd came out at 0.529 L/kg in [4] and 0.57 L/kg in the data set on Rattus norvegicus [16]. In addition, the EC50 was 3.82 mg/kg with Rattus norvegicus [15], 0.57 mg/kg in the data set with Rattus norvegicus [17] and 2.26 mg/kg in the data set with Rattus norvegicus [18]. Moreover, the total exposure AUC(0-inf) came out at 37.9 µg·h/mL in data set [5] and 84.8 µg·h/mL in data set [20]. In the data set on Rattus norvegicus [6], this compound yielded a t1/2 of 2.733 h. The same compound gave a Cmax in data set [10] of 26200 ng/mL. For the same compound, the concentration for half-maximal inhibition (IC50) in data set [14] turned out to be 43 nM. The bioavailability in data set [21] came out at 112%.
Usually ED50 stands for the dose at which the effect has come halfway, by size or by number of responders. On to `Cc1ccc(-c2cc(C(F)(F)F)nn2-c2ccc(S(N)(=O)=O)cc2)cc1` [CELECOXIB], for which the EC50 with Rattus norvegicus [15] worked out at 5 mg/kg; in the data set on Rattus norvegicus [17], 0.69 mg/kg; with Rattus norvegicus [18] it was 2.81 mg/kg. In addition, in the data set with Rattus norvegicus [22], the 50% effective dose (ED50) turned out to be 1.57 mg/kg.
In the case of `[2H]C([2H])([2H])c1cc2c(c(C([2H])([2H])[2H])c1)OC(C(F)(F)F)C(C(=O)O)=C2` (stereo not drawn), the IC50 in data set [1] was greater than 100000 nM.
The AUC is the area under the concentration-time curve, a measure of exposure. Lower therefore signals low exposure. Turning to `[2H]C([2H])([2H])c1cc2c(c(C([2H])([2H])[2H])c1Cl)C=C(C(=O)O)C(C(F)(F)F)O2` (stereo not drawn), the results for the apparent clearance CL/F in data set [3] and in data set [19] were 1.32 mL/min/kg and 1.43 mL/min/kg, respectively. Moreover, the values for the Vd (in data set [4]; with Rattus norvegicus [16]) were 0.287 L/kg and 0.26 L/kg, respectively. Moreover, the EC50 with Rattus norvegicus [15] came out at 2.77 mg/kg; in the data set on Rattus norvegicus [17], 0.47 mg/kg; in the data set with Rattus norvegicus [18], 5.18 mg/kg. In addition, the AUC amounted to 63.759714 µg·h/mL in the data set on Rattus norvegicus [23] and 118.331438 µg·h/mL in the data set with Rattus norvegicus [24]. In the data set with Rattus norvegicus [6], this compound displayed a t1/2 of 2.525 h. The peak level in [10] (Cmax) was 38800 ng/mL. For the same compound, the bioavailability in data set [21] amounted to 92.8%.
